Results: ChEMBL document CHEMBL1152547, “Synthesis and evaluation of anticancer activity of 2-arylamino-6-trifluoromethyl-3-(hydrazonocarbonyl)pyridines” (Bioorg Med Chem, 2009)

Key:
[1] = system: SF-295; assay: Cytotoxicity against human SF295 cells after 48 hrs by sulforhodamine B assay; type: functional; conditions: SF-295, 48 h
[2] = system: MDA-MB-231; assay: Cytotoxicity against human MDA-MB-231 cells after 48 hrs by sulforhodamine B assay; type: functional; conditions: MDA-MB-231, 48 h
[3] = system: T47D; assay: Cytotoxicity against human T47D cells after 48 hrs by sulforhodamine B assay; type: functional
[4] = Toxicity in ip dosed athymic mouse assessed as lethality administered as single dose measured after 2 weeks; type: organism-based; conditions: in vivo
[5] = Cytotoxicity against human NCI60 cells assessed as cell growth at 10 uM after 48 hrs by sulforhodamine B assay; type: functional; conditions: NCI60, 48 h, read-out: Activity
[6] = system: MDA-MB-468; assay: Cytotoxicity against human MDA-MB-468 cells after 48 hrs by sulforhodamine B assay; type: functional; conditions: MDA-MB-468, 48 h
[7] = system: BT-549; assay: Cytotoxicity against human BT549 cells after 48 hrs by sulforhodamine B assay; type: functional; conditions: BT-549, 48 h
[8] = Cytotoxicity against human NCI60 cells after 48 hrs by sulforhodamine B assay; type: functional; conditions: NCI60, 48 h, read-out: pTGI (converted)
[9] = system: MCF7; assay: Cytotoxicity against human MCF7 cells after 48 hrs by sulforhodamine B assay; type: functional; conditions: MCF7, 48 h
[10] = system: NCI-H226; assay: Cytotoxicity against human NCI-H226 cells after 48 hrs by sulforhodamine B assay; type: functional; conditions: NCI-H226, 48 h
[11] = system: CAKI-1; assay: Cytotoxicity against human Caki1 cells after 48 hrs by sulforhodamine B assay; type: functional; conditions: CAKI-1, 48 h
[12] = system: EKVX; assay: Cytotoxicity against human EKVX cells after 48 hrs by sulforhodamine B assay; type: functional
[13] = Toxicity in ip dosed athymic mouse assessed as body weight loss administered as single dose measured after 2 weeks; type: organism-based; conditions: in vivo
[14] = system: HOP-92; assay: Cytotoxicity against human HOP92 cells after 48 hrs by sulforhodamine B assay; type: functional; conditions: HOP-92, 48 h
[15] = system: TK-10; assay: Cytotoxicity against human TK10 cells after 48 hrs by sulforhodamine B assay; type: functional; conditions: TK-10, 48 h
[16] = system: PC-3; assay: Cytotoxicity against human PC3 cells after 48 hrs by sulforhodamine B assay; type: functional; conditions: PC-3, 48 h

Which results are given for `Cc1cc(Cl)ccc1Nc1nc(C(F)(F)F)ccc1C(=O)N/N=C/c1c(Cl)cccc1Cl`?
GI50 [1]: 24 nM; TGI ([1]; read-out: pTGI (converted)): 295 nM; GI50 [2]: 155 nM; TGI ([2]; read-out: pTGI (converted)): 851 nM; GI50 [3]: 224 nM; TGI ([3]; read-out: pTGI (converted)): 794 nM; MTD at 336 h [4]: 400 mg/kg; growth at 10 µM [5]: -6.89%; GI50 [6]: 275 nM; TGI ([6]; read-out: pTGI (converted)): 851 nM; GI50 [7]: 195 nM; TGI ([7]; read-out: pTGI (converted)): 676 nM; TGI [8]: 11700 nM; GI50 [9]: 234 nM; TGI ([9]; read-out: pTGI (converted)): 741 nM; GI50 [10]: 135 nM; TGI ([10]; read-out: pTGI (converted)): 525 nM; GI50 [11]: 12.6 nM; CC50 ([11]; read-out: pLC50 (the source's name) (converted)): 43700 nM; TGI ([11]; read-out: pTGI (converted)): 324 nM; GI50 [12]: 195 nM; TGI ([12]; read-out: pTGI (converted)): 708 nM; MTD at 336 h [13]: 400 mg/kg; GI50 [14]: 191 nM; TGI ([14]; read-out: pTGI (converted)): 537 nM; GI50 [15]: 224 nM; TGI ([15]; read-out: pTGI (converted)): 794 nM; GI50 [16]: 229 nM; TGI ([16]; read-out: pTGI (converted)): 871 nM
